1 compound from US20060018827A1, “Positron therapy of inflammation, infection and disease” (priority 2004, published 2006) can be followed below.

Common to all, as to assay type: in vivo, mouse
Series [1] deals with mammary tumors in PyMT mice. The experiment in a line: Treatment of PyMT mice with ^18F-FDG (toleration, apoptosis and necrosis detection). The protocol: (§1) Animals. All procedures involving mice were conducted in accordance with the National Institutes of Health regulations concerning the use and care of experimental animals. The study of mice was approved by the Albert Einstein College of Medicine (AECOM) Animal Use Committee. Transgenic mice expressing the polyoma middle T antigen (PyMT) in the mammary epithelium under the control of mouse mammary tumor virus (MMTV) long terminal repeat were provided by Dr. W. J. Muller (McMaster University, Ontario, Canada) and then bred at AECOM. At the age of 10 weeks these mice have multiple mammary tumors 0.15-0.17 cm in diameter. In mice older than 18 weeks the tumors are more than 1 cm in diameter. MMTV-NeuT mice (Muller et al. 1988), which carry erbB-2 (Neu), one of the better known human breast cancer oncogenes, were purchased from Jackson Laboratories. MMTV-NeuT mice were obtained as retired breeders and some of them developed mammary tumors at the age of 5 months, whereas others remained-tumor free until 6-7 months of age. C3H/B6 female mice lacking the PyMT transgene were used as healthy controls in therapy experiments. Notch tumor-bearing mice were produced by subcutaneously injecting six to eight week old female nude mice with 105 Notch cells on their right flank. One week after implantation the tumors reached 0.5-0.7 cm in diameter and therapy with FDG was initiated.
Treatment of PyMT mice with ^18F-FDG. After a 4-hour fast, three groups of mice were treated i.p. with the following doses of ^18F-FDG: group 1 (five 10-week-old mice), 2-4 mCi; group 2 (three 22-week-old mice), 2 mCi; group 3 (two C3H/B6 mice), 3 mCi to assess radiation damage to healthy breast tissue. Three 10-week-old and two 22-week-old PyMT mice served as untreated controls. At 10 days after treatment, mice were killed. In younger mice, the right abdominal mammary glands were removed for whole mount preparation as described (Gouon-Evans et al., 2000), then fixed in buffered formalin and sectioned. In older mice, the tumors were removed and processed as above. Some sections were stained with H&E; others were analyzed for the presence of apoptotic and necrotic cells.
Apoptosis and necrosis detection. The detection of apoptotic and necrotic cells in the tumors was performed with an Apoptag® Plus apoptosis detection kit (Serologicals) in accordance with the manufacturer's instructions. In brief, 3′-OH termini of DNA fragments, which are the hallmark of apoptosis, were labeled with digoxigenin-modified nucleotides by terminal deoxynucleotidyl transferase. This enzyme selectively detects apoptotic over necrotic cells. The labeled DNA was detected with an anti-digoxigenin antibody, and detection was performed with a chromagen: apoptotic cells were stained brown, and areas of necrosis were stained yellow.

The next series relates to xenografted Notch tumor. Briefly: PET-CT imaging of Notch tumor-bearing mice with ^18F-FDG. Conditions: nude mice with Notch tumor; PET-CT 1 hour after i.p. 0.5 mCi. The protocol: Notch cell line. Mouse mammary gland cell line 5505 was derived from mammary tumors arising in transgenic mice which express an activated form of Notch 4 from the mouse mammary tumor virus long terminal repeat (MMTV-LTR) promoter/enhancer (Fitzgerald et al. 2000). This cell line is further referred to herein as Notch cells. The Notch cells were cultured in DMEM supplemented with 10% FCS, 10% NCTC-109, 1% non-essential amino acids, […] D-glucose and 1% penicillin-streptomycin.
Animals. All procedures involving mice were conducted in accordance with the National Institutes of Health regulations concerning the use and care of experimental animals. The study of mice was approved by the Albert Einstein College of Medicine (AECOM) Animal Use Committee. Transgenic mice expressing the polyoma middle T antigen (PyMT) in the mammary epithelium under the control of mouse mammary tumor virus (MMTV) long terminal repeat were provided by Dr. W. J. Muller (McMaster University, Ontario, Canada) and then bred at AECOM. At the age of 10 weeks these mice have multiple mammary tumors 0.15-0.17 cm in diameter. […]
Notch tumor-bearing animals were fasted and anesthetized as described above. […] The tumor to normal muscle ratio (TNR) was calculated according to the formula: TNR=average counts per pixel in tumor/average counts per pixel in normal muscle.

Series [2] relates to mammary tumors of MMTV-neuT mice. The experiment in a line: PET imaging of MMTV-neuT mice with ^18F-FDG. Conditions: PET 1 hour after i.p. 0.5-2.0 mCi. The protocol:
as §1, with “Notch tumor-bearing mice were produced by subcutaneously injecting six to eight week old female nude mice with 105 Notch cells on their right flank. One week after implantation the tumors reached 0.5-0.7 cm in diameter and therapy with FDG was initiated.” left out
Imaging of mice with ^18F-FDG. […] The tumor to liver ratios (TLRs) were calculated by the formula TLR=counts per pixel in tumor divided by counts per pixel in liver.

The test system of a further series is BALB/c mice. The experiment in a line: Radiotoxicity studies of ^18F-FDG in healthy mice. The following applies: doses of up to 5 mCi i.p., 1 month. The protocol:
Radiotoxicity studies of ^18F-FDG in healthy mice. After a 4-hour fast, […] of BALB/c mice were treated i.p. with the following doses of ^18F-FDG: group 1 (three mice), 2.5 mCi; group 2 (three mice), 5 mCi; group 3 (three mice), left untreated for control. The mice were monitored for changes in behavior and body weight for 1 month, after which they were killed. Their heart, brain, liver, kidneys, bladder, and bone marrow were removed, fixed in buffered formalin, sectioned, stained with hematoxylin and eosin (H&E), and analyzed histologically.

Where “and” joins values, the source holds several entries; their conditions need not be identical. Equal entries are not always repeated.

In the case of `O=C[C@H]([18F])[C@@H](O)[C@H](O)[C@H](O)CO` [^18F-FDG, ^18F-2-deoxy-2-fluoro-D-glucose], the “apoptotic cells in treated small tumors” value in series [1] (10-week-old PyMT mice, tumors 0.15-0.17 cm, 2-4 mCi i.p., 10 days after treatment) is on record as 4±1%. For the same compound, the “necrotic areas, share of tumor volume” value in series [1] (22-week-old PyMT mice, tumors more than 1 cm, 2 mCi i.p., 10 days after treatment) amounted to 14%. Further, the “apoptosis or necrosis in healthy mammary glands” value in series [1] (C3H/B6 mice, 3 mCi i.p.) was “No apoptosis or necrosis was detected”. Also, the “changes in eating and drinking habits, urine and fecal excretion, or body weight” value in series [1] (PyMT mice, 2-4 mCi i.p., observed for 10 days) was “No changes”. Further, the “radioactivity detected in mice” value in series [1] (PyMT mice, 24 hours after injection) is recorded as “no radioactivity was detected”. Moreover, the “tumor to normal muscle ratio (TNR)” value with xenografted Notch tumor was 3.24 and 3.24±0.20. For the same compound, the “tumor to liver ratio (TLR), mean±SD” value in series [2] is 1.6±0.4. In the series on BALB/c mice, the “damage in major organs including bone marrow (histological examination)” value was “no damage in major organs”.
